Results from ChEMBL document CHEMBL2440026, “Hit-to-lead optimization of 2-(1H-pyrazol-1-yl)-thiazole derivatives as a novel class of EP1 receptor antagonists” (Bioorg Med Chem Lett, 2013).
Blank lines part the entries; values can stand above or below the compound they belong to.

Tests used:
[1] = biological target: T1, Prostaglandin E2 receptor EP1 subtype (Homo sapiens, UniProt P34995); assay: Antagonist activity at human EP1 receptor by reporter gene assay
T1 sequence (P34995 whole entry): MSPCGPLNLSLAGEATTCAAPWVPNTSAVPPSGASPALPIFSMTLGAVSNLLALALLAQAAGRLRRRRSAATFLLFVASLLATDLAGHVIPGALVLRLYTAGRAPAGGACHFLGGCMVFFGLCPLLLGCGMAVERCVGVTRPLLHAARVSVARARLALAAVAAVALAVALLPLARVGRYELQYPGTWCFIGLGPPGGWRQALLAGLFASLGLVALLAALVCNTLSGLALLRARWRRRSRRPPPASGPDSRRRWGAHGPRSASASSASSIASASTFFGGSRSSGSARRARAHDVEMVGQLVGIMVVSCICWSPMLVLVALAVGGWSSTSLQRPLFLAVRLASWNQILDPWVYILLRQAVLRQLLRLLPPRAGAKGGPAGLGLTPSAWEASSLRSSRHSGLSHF

[2] = biological target: T2, Prostaglandin E2 receptor EP1 subtype (Homo sapiens) (UniProt P34995); assay: Antagonist activity at human EP1 receptor at 1.1 uM by reporter gene assay
T2 sequence (whole entry): T1 sequence (P34995 whole entry)

[3] = biological target: T3, Prostaglandin E2 receptor EP3 subtype (Homo sapiens, UniProt P43115); assay: Binding affinity to human EP3 receptor
T3 sequence (P43115 whole entry): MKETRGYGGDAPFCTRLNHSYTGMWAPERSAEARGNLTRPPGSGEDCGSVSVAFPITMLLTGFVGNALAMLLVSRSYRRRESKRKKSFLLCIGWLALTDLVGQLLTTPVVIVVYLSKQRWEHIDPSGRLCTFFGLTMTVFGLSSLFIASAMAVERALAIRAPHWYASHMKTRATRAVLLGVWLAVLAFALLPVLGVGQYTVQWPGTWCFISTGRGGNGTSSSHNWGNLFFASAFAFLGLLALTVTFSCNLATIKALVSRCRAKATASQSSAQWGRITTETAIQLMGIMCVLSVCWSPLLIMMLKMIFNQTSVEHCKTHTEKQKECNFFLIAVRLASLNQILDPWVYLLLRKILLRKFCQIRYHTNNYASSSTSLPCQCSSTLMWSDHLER

[4] = biological target: T4, Prostaglandin E2 receptor EP2 subtype (Homo sapiens, UniProt P43116); assay: Binding affinity to human EP2 receptor
T4 sequence (P43116 whole entry): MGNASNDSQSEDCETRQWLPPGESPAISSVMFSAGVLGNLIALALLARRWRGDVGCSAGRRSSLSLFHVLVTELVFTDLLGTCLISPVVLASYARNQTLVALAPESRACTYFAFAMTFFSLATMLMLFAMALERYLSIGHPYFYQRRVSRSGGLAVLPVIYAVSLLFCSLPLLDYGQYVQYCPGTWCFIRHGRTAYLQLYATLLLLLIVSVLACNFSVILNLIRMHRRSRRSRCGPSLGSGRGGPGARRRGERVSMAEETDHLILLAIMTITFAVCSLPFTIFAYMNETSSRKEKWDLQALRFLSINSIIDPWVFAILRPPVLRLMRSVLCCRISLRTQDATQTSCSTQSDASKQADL

[5] = Intrinsic clearance in rat […] by LC/MS/MS analysis; format: ADME, cell-free
[6] = biological target: T1, Prostaglandin E2 receptor EP1 subtype; assay: Binding affinity to human EP1 receptor
[7] = biological target: T5, Prostaglandin E2 receptor EP4 subtype (Homo sapiens, UniProt P35408); assay: Binding affinity to human EP4 receptor
T5 sequence (P35408 whole entry): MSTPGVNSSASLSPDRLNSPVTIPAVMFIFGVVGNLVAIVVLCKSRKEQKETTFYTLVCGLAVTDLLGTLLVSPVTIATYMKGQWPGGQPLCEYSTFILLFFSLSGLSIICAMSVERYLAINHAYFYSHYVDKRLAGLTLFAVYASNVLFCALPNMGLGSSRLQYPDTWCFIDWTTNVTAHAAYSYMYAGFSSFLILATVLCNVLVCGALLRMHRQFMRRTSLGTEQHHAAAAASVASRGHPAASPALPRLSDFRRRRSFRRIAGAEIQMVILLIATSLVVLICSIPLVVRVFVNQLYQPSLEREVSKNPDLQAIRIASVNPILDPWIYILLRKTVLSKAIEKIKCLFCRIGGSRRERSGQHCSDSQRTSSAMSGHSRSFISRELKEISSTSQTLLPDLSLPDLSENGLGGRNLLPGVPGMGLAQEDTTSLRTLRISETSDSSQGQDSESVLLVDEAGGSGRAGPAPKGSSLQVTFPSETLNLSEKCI

Cytochrome P450 3A4 = Cytochrome P450 3A4 (Homo sapiens, UniProt P08684); assay: Inhibition of CYP3A4 (unknown origin); format: ADME
Chain of Cytochrome P450 3A4 (P08684 whole entry): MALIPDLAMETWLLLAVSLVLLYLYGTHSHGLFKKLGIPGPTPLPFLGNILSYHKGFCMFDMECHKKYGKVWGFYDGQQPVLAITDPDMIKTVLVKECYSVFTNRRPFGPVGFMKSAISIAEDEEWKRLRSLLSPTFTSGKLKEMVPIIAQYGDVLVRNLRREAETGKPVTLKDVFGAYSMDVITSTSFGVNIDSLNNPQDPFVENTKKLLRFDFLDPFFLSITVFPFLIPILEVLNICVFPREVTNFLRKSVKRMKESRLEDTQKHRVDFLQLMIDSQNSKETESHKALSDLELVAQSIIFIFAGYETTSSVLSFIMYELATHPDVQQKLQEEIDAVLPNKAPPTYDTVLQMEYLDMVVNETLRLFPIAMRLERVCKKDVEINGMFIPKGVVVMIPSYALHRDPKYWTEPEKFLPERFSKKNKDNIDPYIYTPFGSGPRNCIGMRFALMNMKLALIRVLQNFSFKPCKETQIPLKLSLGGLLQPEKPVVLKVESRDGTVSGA

Cytochrome P450 2C9 = Cytochrome P450 2C9 (Homo sapiens, UniProt P11712); assay: Inhibition of CYP2C9 (unknown origin); format: ADME
Chain of Cytochrome P450 2C9 (P11712 whole entry): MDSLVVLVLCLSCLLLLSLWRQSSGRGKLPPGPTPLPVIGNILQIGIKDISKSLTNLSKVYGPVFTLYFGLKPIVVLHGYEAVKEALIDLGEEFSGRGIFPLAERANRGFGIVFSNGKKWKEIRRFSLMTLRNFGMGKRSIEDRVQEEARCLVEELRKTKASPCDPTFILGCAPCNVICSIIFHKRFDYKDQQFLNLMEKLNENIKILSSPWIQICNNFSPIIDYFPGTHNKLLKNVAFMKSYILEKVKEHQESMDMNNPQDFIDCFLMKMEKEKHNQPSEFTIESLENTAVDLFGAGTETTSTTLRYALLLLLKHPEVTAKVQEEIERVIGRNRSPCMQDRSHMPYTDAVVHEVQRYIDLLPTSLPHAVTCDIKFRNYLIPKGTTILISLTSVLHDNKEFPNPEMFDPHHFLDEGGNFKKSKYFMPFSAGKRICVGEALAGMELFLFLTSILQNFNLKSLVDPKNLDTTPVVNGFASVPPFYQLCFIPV

Cytochrome P450 2C19 = Cytochrome P450 2C19 (Homo sapiens, UniProt P33261); assay: Inhibition of CYP2C19 (unknown origin); format: ADME
Chain of Cytochrome P450 2C19 (P33261 whole entry): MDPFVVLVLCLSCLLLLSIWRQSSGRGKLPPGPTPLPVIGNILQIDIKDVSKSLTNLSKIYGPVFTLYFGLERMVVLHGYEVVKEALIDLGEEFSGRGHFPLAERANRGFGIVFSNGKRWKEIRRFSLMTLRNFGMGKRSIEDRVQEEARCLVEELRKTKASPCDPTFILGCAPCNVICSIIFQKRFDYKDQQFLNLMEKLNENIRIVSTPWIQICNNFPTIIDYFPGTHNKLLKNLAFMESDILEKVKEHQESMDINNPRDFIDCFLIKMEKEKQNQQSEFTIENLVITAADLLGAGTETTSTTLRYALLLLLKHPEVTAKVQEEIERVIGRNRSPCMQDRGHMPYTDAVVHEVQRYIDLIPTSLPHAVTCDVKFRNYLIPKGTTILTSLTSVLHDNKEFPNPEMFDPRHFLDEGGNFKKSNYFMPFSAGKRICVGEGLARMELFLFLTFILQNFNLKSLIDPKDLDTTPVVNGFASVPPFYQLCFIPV

[8] = biological target: T1, Prostaglandin E2 receptor EP1 subtype; assay: Antagonist activity at human EP1 receptor by intracellular Ca2+ release assay; format: functional, cell-based
Salmonella typhimurium [9] = assay: Genotoxicity in Salmonella typhimurium TA100; format: toxicity, organism-based; settings: salmonella enterica subsp. enterica serovar typhimurium
Cytochrome P450 2D6 = Cytochrome P450 2D6 (Homo sapiens, UniProt P10635); assay: Inhibition of CYP2D6 (unknown origin); format: ADME
Chain of Cytochrome P450 2D6 (P10635 whole entry): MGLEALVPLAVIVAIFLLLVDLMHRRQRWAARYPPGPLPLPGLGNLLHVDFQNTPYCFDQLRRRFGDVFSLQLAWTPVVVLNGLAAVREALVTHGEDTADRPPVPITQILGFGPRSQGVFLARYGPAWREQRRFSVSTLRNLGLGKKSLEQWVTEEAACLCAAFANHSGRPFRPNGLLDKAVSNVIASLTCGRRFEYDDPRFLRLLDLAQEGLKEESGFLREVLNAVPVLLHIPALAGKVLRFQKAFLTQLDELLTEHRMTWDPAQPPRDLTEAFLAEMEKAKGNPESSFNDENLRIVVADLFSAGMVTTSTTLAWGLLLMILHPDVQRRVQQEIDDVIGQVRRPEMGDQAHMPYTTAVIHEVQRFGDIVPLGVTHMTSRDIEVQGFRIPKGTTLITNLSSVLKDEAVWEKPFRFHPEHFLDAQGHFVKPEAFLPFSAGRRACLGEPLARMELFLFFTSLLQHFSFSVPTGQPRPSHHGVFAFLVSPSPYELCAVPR

Cytochrome P450 1A2 = biological target: T6, Cytochrome P450 1A2 (Homo sapiens, UniProt P05177); assay: Inhibition of CYP1A2 (unknown origin); format: ADME
T6 sequence (P05177 whole entry): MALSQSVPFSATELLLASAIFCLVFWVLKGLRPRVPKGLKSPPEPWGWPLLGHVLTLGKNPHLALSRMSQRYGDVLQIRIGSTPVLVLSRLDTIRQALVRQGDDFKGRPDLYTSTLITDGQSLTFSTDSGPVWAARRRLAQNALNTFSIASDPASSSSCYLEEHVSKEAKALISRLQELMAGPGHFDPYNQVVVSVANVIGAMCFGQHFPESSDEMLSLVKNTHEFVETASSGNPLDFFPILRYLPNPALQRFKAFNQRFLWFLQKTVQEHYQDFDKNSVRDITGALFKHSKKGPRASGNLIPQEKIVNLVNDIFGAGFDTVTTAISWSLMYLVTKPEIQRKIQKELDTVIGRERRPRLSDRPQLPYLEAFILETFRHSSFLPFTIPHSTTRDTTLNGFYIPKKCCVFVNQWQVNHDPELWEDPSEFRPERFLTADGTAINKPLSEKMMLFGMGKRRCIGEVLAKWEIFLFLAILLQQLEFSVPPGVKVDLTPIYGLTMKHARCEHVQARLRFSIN

Salmonella typhimurium [10] = assay: Genotoxicity in Salmonella typhimurium TA98; format: toxicity, organism-based; settings: salmonella enterica subsp. enterica serovar typhimurium
[11] = Intrinsic clearance in human […] by LC/MS/MS analysis; format: ADME, cell-free
[12] = Apparent permeability from apical to basolateral side in MDCK cells; format: ADME, cell-based, Canis lupus familiaris; settings: dog
Homo sapiens [13] = species: Homo sapiens; assay: Selectivity ratio of IC50 for EP3 receptor (unknown origin) to IC50 for human EP1 receptor
[14] = biological target: T5, Prostaglandin E2 receptor EP4 subtype; assay: Antagonist activity at EP4 receptor (unknown origin)
Homo sapiens [15] = species: Homo sapiens; assay: Selectivity ratio of IC50 for EP4 receptor (unknown origin) to IC50 for human EP1 receptor
[16] = biological target: T4, Prostaglandin E2 receptor EP2 subtype; assay: Antagonist activity at EP2 receptor (unknown origin)
[17] = biological target: T3, Prostaglandin E2 receptor EP3 subtype; assay: Antagonist activity at EP3 receptor (unknown origin)
Homo sapiens [18] = species: Homo sapiens; assay: Selectivity ratio of IC50 for EP2 receptor (unknown origin) to IC50 for human EP1 receptor
[19] = Oral bioavailability in Sprague-Dawley rat at 10 mg/kg; format: ADME, organism-based; settings: in vivo

Compound: Cc1ccc(-c2cc(C(F)(F)F)n(-c3nc(C(=O)O)cs3)n2)cc1
IC50 [1]: 3 µM

Compound: O=C(O)c1csc(-n2nc(-c3ccccc3)cc2-c2ccccc2)n1
inhibition [2]: 31%

Compound: CC(C)(C)c1cc(-c2ccccc2)nn1-c1nc(C(=O)O)cs1
inhibition [2]: 1%

Compound: Cc1c(-c2ccccc2)nc(-c2nc(C(=O)O)cs2)n1-c1ccccc1
inhibition [2]: 7%

Compound: O=C(O)c1csc(-n2nc(-c3cccc(O)c3)cc2C(F)(F)F)n1
IC50 [1]: 0.58 µM

Compound: COc1ccc(-c2cc(C(F)(F)F)nn2-c2nc(C(=O)O)cs2)cc1
Ki [3]: > 5 µM
Ki [4]: > 8 µM
CLint scaled [5]: 195 mL/min/kg
Ki [6]: 8.7 µM
Ki [7]: > 2.7 µM
IC50 (Cytochrome P450 3A4): > 10 µM
IC50 (Cytochrome P450 2C9): > 10 µM
IC50 (Cytochrome P450 2C19): 7.14 µM
Ratio IC50 (Homo sapiens [13]): 3
IC50 [8]: 5.8 µM
IC50 [14]: > 2.7 µM
Ratio IC50 (Homo sapiens [15]): 3
Activity (Salmonella typhimurium [9]): Non-toxic
IC50 (Cytochrome P450 2D6): > 10 µM
IC50 (Cytochrome P450 1A2): > 10 µM
Activity (Salmonella typhimurium [10]): Non-toxic
CLint scaled [11]: 187 mL/min/kg
IC50 [16]: > 8 µM
IC50 [1]: 1 µM
IC50 [17]: > 5 µM
Ratio IC50 (Homo sapiens [18]): 3

Compound: Cc1cc(-c2ccccc2)nn1-c1nc(C(=O)O)cs1
inhibition [2]: 14%

Continued, in another order:

IC50 [1]: 0.5 µM
Compound: Cn1c(-c2ccccc2)nc(-c2nc(C(=O)O)cs2)c1-c1ccccc1

Ki [3]: > 5 µM
Ki [4]: > 8 µM
CLint scaled [5]: 130 mL/min/kg
Ki [6]: 0.53 µM
Ki [7]: > 2.7 µM
IC50 (Cytochrome P450 3A4): > 10 µM
IC50 (Cytochrome P450 2C9): > 10 µM
IC50 (Cytochrome P450 2C19): > 10 µM
IC50 [8]: 0.8 µM
IC50 (Cytochrome P450 2D6): > 10 µM
IC50 (Cytochrome P450 1A2): > 10 µM
CLint scaled [11]: 500 mL/min/kg
Papp A→B [12]: 22.8 ×10⁻⁶ cm/s
IC50 [1]: 0.18 µM
Compound: O=C(O)c1csc(-n2nc(-c3ccccc3O)cc2C(F)(F)F)n1
Activity (Salmonella typhimurium [9]): Non-toxic
Activity (Salmonella typhimurium [10]): Non-toxic

IC50 (Cytochrome P450 3A4): > 10 µM
IC50 (Cytochrome P450 2C9): > 10 µM
IC50 (Cytochrome P450 2C19): > 10 µM
IC50 (Cytochrome P450 2D6): > 10 µM
IC50 (Cytochrome P450 1A2): > 10 µM
CLint scaled [11]: 28 mL/min/kg
IC50 [1]: 0.32 µM
Compound: O=C(O)c1csc(-n2nc(-c3ccccc3)cc2C(F)(F)F)n1

IC50 [1]: 0.32 µM
Compound: O=C(O)c1csc(-n2nc(-c3ccc(O)cc3)cc2C(F)(F)F)n1

IC50 [1]: 0.084 µM
Compound: Cc1c(-c2ccccc2)nn(-c2nc(C(=O)O)cs2)c1C(F)(F)F

IC50 [1]: 0.43 µM
Compound: COc1ccc(-c2cc(C(F)(F)F)n(-c3nc(C(=O)O)cs3)n2)cc1

Ki [3]: > 5 µM
Ki [4]: > 8 µM
CLint scaled [5]: 15 mL/min/kg
Ki [6]: 0.29 µM
Ki [7]: > 2.7 µM
IC50 (Cytochrome P450 3A4): > 10 µM
IC50 (Cytochrome P450 2C9): > 10 µM
IC50 (Cytochrome P450 2C19): 4.71 µM
IC50 [8]: 0.5 µM
IC50 (Cytochrome P450 2D6): > 10 µM
IC50 (Cytochrome P450 1A2): 7.93 µM
bioavailability [19]: 32%
CLint scaled [11]: 35 mL/min/kg
Papp A→B [12]: 51.6 ×10⁻⁶ cm/s
IC50 [1]: 0.05 µM
Compound: Cc1c(-c2ccccc2)nn(-c2nc(C(=O)O)cs2)c1-c1ccccc1
Activity (Salmonella typhimurium [9]): Non-toxic
Activity (Salmonella typhimurium [10]): Non-toxic
